Data published in ChEMBL document CHEMBL1137830, “Synthesis and evaluation of tacrine-E2020 hybrids as acetylcholinesterase inhibitors for the treatment of Alzheimer's disease” (Bioorg Med Chem Lett, 2004).

What was measured:
Butyrylcholinesterase = Butyrylcholinesterase (Rattus norvegicus, UniProt Q9JKC1)
Description: Inhibitory concentration against rat serum Butyrylcholinesterase

Acetylcholinesterase = molecular target: T1, Acetylcholinesterase (Rattus norvegicus, UniProt P37136)
T1 sequence (P37136 whole entry): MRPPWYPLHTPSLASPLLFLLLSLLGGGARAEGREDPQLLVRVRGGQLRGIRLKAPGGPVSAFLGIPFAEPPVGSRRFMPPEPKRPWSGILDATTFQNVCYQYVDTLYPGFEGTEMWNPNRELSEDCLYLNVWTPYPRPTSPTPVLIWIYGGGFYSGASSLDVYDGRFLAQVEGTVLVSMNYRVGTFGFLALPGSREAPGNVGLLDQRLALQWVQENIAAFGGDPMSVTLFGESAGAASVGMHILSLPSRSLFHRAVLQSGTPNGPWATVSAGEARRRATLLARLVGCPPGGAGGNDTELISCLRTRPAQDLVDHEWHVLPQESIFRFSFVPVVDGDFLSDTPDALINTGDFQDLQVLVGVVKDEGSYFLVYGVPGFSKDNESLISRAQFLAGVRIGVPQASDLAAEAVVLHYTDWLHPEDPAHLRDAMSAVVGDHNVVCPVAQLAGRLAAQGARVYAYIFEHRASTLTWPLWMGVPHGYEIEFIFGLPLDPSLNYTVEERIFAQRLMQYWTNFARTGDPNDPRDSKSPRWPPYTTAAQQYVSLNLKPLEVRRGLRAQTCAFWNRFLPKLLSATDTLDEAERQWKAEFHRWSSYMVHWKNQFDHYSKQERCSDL
Description: Inhibitory concentration against rat cortex Acetylcholinesterase

Sequence of Butyrylcholinesterase (Q9JKC1 whole entry): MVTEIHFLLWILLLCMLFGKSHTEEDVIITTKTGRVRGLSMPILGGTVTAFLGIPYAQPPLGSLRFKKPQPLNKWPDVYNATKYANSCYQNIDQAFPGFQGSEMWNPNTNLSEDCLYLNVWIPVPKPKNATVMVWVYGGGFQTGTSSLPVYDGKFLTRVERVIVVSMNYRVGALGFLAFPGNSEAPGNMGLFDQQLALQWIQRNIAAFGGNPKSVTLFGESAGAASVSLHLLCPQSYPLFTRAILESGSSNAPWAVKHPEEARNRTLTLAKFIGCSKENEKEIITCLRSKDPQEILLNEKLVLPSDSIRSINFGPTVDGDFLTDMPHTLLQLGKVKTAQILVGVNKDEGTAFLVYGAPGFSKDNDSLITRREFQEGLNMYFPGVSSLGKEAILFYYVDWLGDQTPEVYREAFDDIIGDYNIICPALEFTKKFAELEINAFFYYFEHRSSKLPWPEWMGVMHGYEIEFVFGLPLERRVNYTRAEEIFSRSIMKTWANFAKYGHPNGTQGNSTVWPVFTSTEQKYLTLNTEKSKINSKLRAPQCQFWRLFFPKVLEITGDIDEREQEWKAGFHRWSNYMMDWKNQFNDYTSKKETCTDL

Row | Structure (SMILES) | IC50 (Butyrylcholinesterase) | IC50 (Acetylcholinesterase)
1 | O=C(CNc1c2c(nc3ccccc13)CCCC2)NCC1CCN(c2ccccc2)CC1 | 12.4 nM | 
2 | O=C(CNC1c2ccccc2-c2[nH]c3ccccc3c21)NCCC1CCN(Cc2ccccc2)CC1 (stereo not drawn) | 17800 nM | 
3 | COc1ccc(C(=O)NCC(=O)NCCC2CCN(Cc3ccccc3)CC2)cc1OC | 19200 nM | 662 nM
4 | O=C(CNC1CCc2ccccc21)NCCC1CCN(Cc2ccccc2)CC1 (stereo not drawn) | 6920 nM | 230 nM
5 | O=C(CNc1c2c(nc3ccccc13)CCCC2)NCCC1CCN(c2ccccc2)CC1 | 76 nM | 6 nM
